Here are results for one compound from PMC12783734, “Carboxymethylcytosine is a natural base modification and a handle for bacteriophage DNA hypermodification” (Nature Communications, 2025).

The target in this assay is T1, EcCmoA (Escherichia coli, UniProt P76290).
T1 construct: gene cmoA; E. coli BL21(DE3)
Kind of assay: HPLC / LC-MS of Cx-SAM formation. The following applies: co-substrate prephenate; sodium phosphate pH 6.8; 37 C. Type of assay: biochemical.

T1 sequence (P76290 whole entry): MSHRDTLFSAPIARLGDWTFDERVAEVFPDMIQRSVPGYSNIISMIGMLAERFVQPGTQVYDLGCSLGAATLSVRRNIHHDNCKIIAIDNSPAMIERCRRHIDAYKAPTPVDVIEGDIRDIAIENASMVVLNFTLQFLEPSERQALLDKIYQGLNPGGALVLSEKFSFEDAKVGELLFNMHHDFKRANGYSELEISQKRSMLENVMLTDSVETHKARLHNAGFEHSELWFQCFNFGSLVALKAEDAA

With `C[S+](CC[C@H](N)C(=O)O)C[C@H]1O[C@@H](n2cnc3c(N)ncnc32)[C@H](O)[C@@H]1O` (stereo partly shown) [SAM], the “HPLC / LC-MS of Cx-SAM formation” value was “Incubation with either SpCmoA or EcCmoA led to a decrease in the SAM peak”.
